Measurements as given in publication PMC6538516 (Journal of Veterinary Science, 2019).
Like-named read-outs stand apart in the source and are kept apart here. Blank lines part the entries; values can stand above or below the compound they belong to.

How the values were obtained:
[1] = humans; ref 14 (Wijnands et al.); cited from earlier work
CYP1A = details: hepatic microsomes from Beagles; ref 13 (Regmi et al.); cited from earlier work
[2] = Pharmacokinetics of p-acetaminophen in Bactrian camels, substrate only; format: in vivo, Bactrian camel; details: Group 1, substrate only, 4 mg/kg intramuscular
[3] = rats, intramuscular injection; ref 9 (Yamasaki et al.); cited from earlier work
CYP1A enzyme = format: in vivo, Bactrian camel; details: Group 2, inhibitor (lomefloxacin) + substrate; p-acetaminophen 4 mg/kg intramuscular
[4] = healthy cattle, oral administration; ref 8 (Sawaguchi et al.); cited from earlier work
[5] = p-acetaminophen injected into porcine animals; ref 7 (Qiu et al.); cited from earlier work

Structure (SMILES): CCn1cc(C(=O)O)c(=O)c2cc(F)c(N3CCNCC3)nc21 [enoxacin]
effect on total body clearance of theophylline [1]: significantly decreased

Structure (SMILES): CCN1CCN(c2cc3c(cc2F)c(=O)c(C(=O)O)cn3C2CC2)CC1 [enrofloxacin]
CYP1A-inhibiting effect (CYP1A): inhibited CYP1A in a non-competitive manner

Structure (SMILES): CCn1cc(C(=O)O)c(=O)c2cc(F)c(N3CCNCC3)cc21 [norfloxacin]
CYP1A-inhibiting effect (CYP1A): inhibited CYP1A in a non-competitive manner

Structure (SMILES): CC1COc2c(N3CCN(C)CC3)c(F)cc3c(=O)c(C(=O)O)cn1c23 (centres unmarked) [ofloxacin]
CYP1A-inhibiting effect (CYP1A): inhibited CYP1A in a non-competitive manner

Structure (SMILES): C[C@@H]1CN(c2c(F)c(F)c3c(=O)c(C(=O)O)cn(C4CC4)c3c2F)C[C@H](C)N1 [orbifloxacin]
CYP1A-inhibiting effect (CYP1A): inhibited CYP1A in a non-competitive manner

Vd (volume of distribution under steady-state) [2]: 4,416.8 ± 138.23 mL/kg
AUC0-t ([2]; plasma): 5730 ± 310 ng·h/mL
AUC0-∞ ([2]; plasma): 6010 ± 630 ng·h/mL
Cmax ([2]; plasma): 960 ± 430 ng/mL
Tmax ([2]; plasma): 1.70 ± 0.51 h
AUC0-t (CYP1A enzyme): 8880 ± 230 ng·h/mL
AUC0-∞ (CYP1A enzyme): 9150 ± 630 ng·h/mL
Cmax (CYP1A enzyme): 1220 ± 660 ng/mL
Tmax (CYP1A enzyme): 0.833 ± 0.37 h
Vd (volume of distribution under steady-state) (CYP1A enzyme): 3,934.0 ± 90.03 mL/kg
Structure (SMILES): CC(=O)Nc1ccc(O)cc1 [p-acetaminophen]
MRT [3]: 0.40 ± 0.03 h
T1/2 [3]: 0.30 ± 0.02 h
MRT [4]: 4.70 ± 0.93 h
T1/2 [4]: 2.41 ± 0.58 h
Tmax [4]: 1.40 ± 0.55 h
AUC0-t [5]: 23950 ± 6980 ng·h/mL
T1/2 [5]: 1.76 ± 0.91 h
Tmax [5]: 0.41 ± 0.13 h
